We go through 13 compounds from article PMC5956890 (Journal of medicinal chemistry, 2017).

Experiment [1] deals with ANGPTL4 and PDK4 gene transcription. Description: Q-RT-PCR of ANGPTL4 and PDK4 mRNA in hBM-MSCs. It counts as cell-based, human. Conditions: 3rd day after induction of adipogenesis.
The target in experiment [2] is T1, PPARδ (Homo sapiens, UniProt Q03181).
T1 sequence (Q03181 211-439 limits assumed): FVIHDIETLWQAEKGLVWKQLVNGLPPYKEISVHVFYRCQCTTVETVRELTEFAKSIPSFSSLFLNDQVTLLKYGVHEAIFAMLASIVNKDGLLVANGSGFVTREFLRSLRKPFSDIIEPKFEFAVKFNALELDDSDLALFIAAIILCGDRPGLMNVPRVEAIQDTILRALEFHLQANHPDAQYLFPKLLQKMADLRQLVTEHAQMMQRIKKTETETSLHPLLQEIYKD
Description: TR-FRET PPARδ corepressor assay. It counts as biochemical. Particulars: SMRT-ID2 peptide. In general terms: Time-resolved FRET reads energy transfer from a long-lived donor to a nearby acceptor.

Experiment [3] has as its system hBM-MSCs. Description: adiponectin production during adipogenesis in hBM-MSCs. Conditions: for adipogenesis in hBM-MSCs: compared to control; for adiponectin production during adipogenesis: compared to IDX control.
Another experiment has as its target T2, PPARγ (Homo sapiens, UniProt P37231).
T2 sequence (P37231 235-505 limits assumed): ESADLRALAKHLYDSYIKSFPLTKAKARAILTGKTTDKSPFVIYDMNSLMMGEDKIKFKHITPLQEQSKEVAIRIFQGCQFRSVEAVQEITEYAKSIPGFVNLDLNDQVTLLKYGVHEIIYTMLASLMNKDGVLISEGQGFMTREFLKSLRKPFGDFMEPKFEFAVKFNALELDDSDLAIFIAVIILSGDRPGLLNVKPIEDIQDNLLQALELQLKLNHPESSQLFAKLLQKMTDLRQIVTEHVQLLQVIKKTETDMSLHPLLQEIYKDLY
In words: TR-FRET competitive binding assay PPARγ. Particulars: concentration-response.

Experiment [4] has as its system hBM-MSCs. Description: Oil Red O staining of lipid droplets in hBM-MSCs. It counts as cell-based, human. Particulars: compared with IDX control, 7th day.
The subject of experiment [5] is human AR-transfected murine osteoblast precursor cell line 7F2. Conditions: cited from earlier work.
For experiment [6], the target named is T3, PPARδ (Homo sapiens, UniProt Q03181).
T3 sequence (Q03181 1-441): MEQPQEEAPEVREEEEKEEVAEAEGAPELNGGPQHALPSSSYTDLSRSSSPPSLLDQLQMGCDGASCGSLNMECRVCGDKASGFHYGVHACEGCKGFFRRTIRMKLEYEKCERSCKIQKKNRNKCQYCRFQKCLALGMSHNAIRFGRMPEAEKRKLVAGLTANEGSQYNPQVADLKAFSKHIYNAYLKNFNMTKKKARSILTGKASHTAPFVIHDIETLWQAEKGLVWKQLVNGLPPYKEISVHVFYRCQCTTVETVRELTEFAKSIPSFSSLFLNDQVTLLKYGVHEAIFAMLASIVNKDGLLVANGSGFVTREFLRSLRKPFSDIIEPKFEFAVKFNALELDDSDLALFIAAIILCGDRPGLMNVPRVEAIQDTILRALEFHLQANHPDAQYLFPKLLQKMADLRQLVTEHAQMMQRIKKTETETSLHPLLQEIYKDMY
Description: TR-FRET competitive binding assay PPARδ. Particulars: concentration-response.

Experiment [7] has as its target T1, PPARδ. Description: TR-FRET PPARδ coactivator assay. It counts as biochemical. Conditions: compound alone.
The target in a further experiment is T4, PPARα (Homo sapiens, UniProt Q07869).
T4 sequence (Q07869 200-468 limits assumed): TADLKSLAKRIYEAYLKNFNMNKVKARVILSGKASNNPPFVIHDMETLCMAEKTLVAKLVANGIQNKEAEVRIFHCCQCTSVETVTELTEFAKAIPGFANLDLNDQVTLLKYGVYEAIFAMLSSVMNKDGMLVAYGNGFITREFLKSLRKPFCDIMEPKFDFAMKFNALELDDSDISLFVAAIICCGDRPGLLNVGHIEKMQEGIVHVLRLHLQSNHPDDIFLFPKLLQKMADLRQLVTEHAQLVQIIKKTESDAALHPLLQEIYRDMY
In words: TR-FRET competitive binding assay PPARα. Particulars: up to 20 µM.

Experiment [8] relates to STZ-induced diabetic C57BL/6J mice. Description: STZ-induced diabetes mouse model. Particulars: oral 20 mg/kg for 5 days, male C57BL/6J. It counts as in vivo.

Where a name gives a salt, the structure may show the parent alone.

`O=C(NCCS(=O)(=O)c1ccc(C(F)(F)F)cn1)c1ccc(Cl)cc1` [Compound 24, 4-chloro-N-[2-[[5-(trifluoromethyl)-2-pyridinyl]sulfonyl]ethyl]benzamide]: in [1], the “ANGPTL4 mRNA level” value is “did not affect ANGPTL4 and PDK4 mRNA levels”; the “PDK4 mRNA level” value was “did not affect ANGPTL4 and PDK4 mRNA levels”. Moreover, the “interaction between PPARδ and corepressor peptide” value on PPARδ [2] is given as “significantly promoted the recruitment of the corepressor peptide”.
For the compound `Cc1cc(SCc2sc(-c3ccc(C(F)(F)F)cc3)nc2C)ccc1OCC(=O)O` [Compound 22, 2-[2-methyl-4-[[[4-methyl-2-[4-(trifluoromethyl)phenyl]-5-thiazolyl]methyl]thio]phenoxy]acetic acid], in experiment [1], the “ANGPTL4 mRNA level” value is “significantly increased ANGPTL4 and PDK4 gene transcription”; the “PDK4 mRNA level” value was “significantly increased ANGPTL4 and PDK4 gene transcription”.
For the compound `CNC(=O)[C@@]12C[C@@H]1[C@@H](n1cnc3c(NCc4cccc(Cl)c4)nc(C#Cc4ccc(F)c(F)c4)nc31)[C@H](O)[C@@H]2O` [Compound 17, (1S,2R,3S,4R,5S)-4-[6-[[(3-chlorophenyl)methyl]-amino]-2-[2-(3,4-difluorophenyl)ethynyl]-9H-purin-9-yl]-2,3-dihydroxy-N-methylbicyclo[3.1.0]hexane-1-carboxamide], the “adipogenesis in hBM-MSCs” value in the experiment on hBM-MSCs [3] is recorded as “no effect on adipogenesis”.
Turning to `CCCn1cc2c(nc(NC(=O)Nc3ccc(OC)cc3)n3nc(-c4ccco4)nc23)n1` [Compound 18, N-[2-(2-furanyl)-8-propyl-8H-pyrazolo[4,3-e][1,2,4]triazolo[1,5-c]pyrimidin-5-yl]-N′-(4-methoxyphenyl)-urea], in the experiment on hBM-MSCs [3], the “adipogenesis in hBM-MSCs” value was “no effect on adipogenesis”.
`COc1ccc(Cl)cc1C(=O)NCCc1ccc(S(=O)(=O)NC(=O)NC2CCCCC2)cc1` [glibenclamide]: on PPARγ, the “PPARγ binding activity” value is listed as “showed PPARγ binding activity”.
As for `Cn1c(=O)c2c(ncn2C)n(C)c1=O` [caffeine], in the experiment on hBM-MSCs [4], the “lipid droplets in differentiated adipocytes (ORO staining)” value is given as “decreased them”. The “adipogenesis in hMSCs” value in the experiment on hBM-MSCs [3] (1 mM) is listed as “inhibited adipogenesis”.
Turning to `COC(=O)c1sccc1S(=O)(=O)Nc1ccc(Nc2ccccc2)cc1OC` [Compound 23, 3-[[[2-methoxy-4-(phenylamino)phenyl]-amino]sulfonyl]-2-thiophenecarboxylic acid methyl ester], in [1], the “ANGPTL4 mRNA level” value is “did not affect ANGPTL4 and PDK4 mRNA levels”; the “PDK4 mRNA level” value is “did not affect ANGPTL4 and PDK4 mRNA levels”.
For the compound `OC[C@H]1O[C@@H](n2cnc3c(NC4CCCC4)nc(Cl)nc32)[C@H](O)[C@@H]1O` [Compound 14, 2-chloro-N^6-cyclopentyladenosine], in experiment [5], the “increase of adipocyte differentiation” value was 20–30%. Moreover, in the experiment with hBM-MSCs [3], the “adiponectin production during adipogenesis” value is reported as “no significant effect” and the “adipogenesis in hBM-MSCs” value is given as “did not significantly promote adipogenesis”.
Take `CNC(=O)[C@H]1S[C@@H](n2cnc3c(NCc4cccc(I)c4)nc(Cl)nc32)[C@H](O)[C@@H]1O` [Compound 1d]: the “PPARδ binding activity” value on PPARδ [6] is on record as “most potent inhibitor among A3 AR agonists”.
For `CCNC(=O)[C@H]1O[C@@H](n2cnc3c(N)ncnc32)[C@H](O)[C@@H]1O` [Compound 15, 5′-(N-ethylcarboxamido) adenosine], the “increase of adipocyte differentiation” value in [5] is on record as 20–30%. Also, in the experiment on hBM-MSCs [3], the “adiponectin production during adipogenesis” value is listed as “no significant effect” and the “adipogenesis in hBM-MSCs” value was “did not significantly promote adipogenesis”.
Take `CCNC(=O)[C@H]1O[C@@H](n2cnc3c(N)nc(NCCc4ccc(CCC(=O)O)cc4)nc32)[C@H](O)[C@@H]1O` [Compound 16, 2-p-(2-carboxyethyl)phenethylamino-5′-N-ethylcarboxamidoadenosine hydrochloride hydrate]: in the experiment with hBM-MSCs [3], the “adiponectin production during adipogenesis” value is “no significant effect”.
Turning to `CNC(=O)[C@H]1S[C@@H](n2cnc3c(NCc4cccc(I)c4)ncnc32)[C@H](O)[C@@H]1O` [Compound 1c], the “recruitment of labeled coactivator peptide to PPARδ” value at PPARδ [7] is “no effect on the recruitment of the labeled coactivator peptide”. In addition, the “interaction between PPARδ and corepressor peptide” value on PPARδ [2] is recorded as “enhanced the interaction of PPARδ with the corepressor peptide”. The “replacement of labeled PPARα ligand binding” value on PPARα is listed as at most 50%. In addition, the “PPARγ binding activity” value at PPARγ is recorded as “very weak binding activity”. Also, in experiment [8], the “serum glucose levels” value was “significantly decreased serum glucose levels” and the “serum triglyceride levels” value is given as “downregulated serum triglyceride levels”.
For the compound `Nc1ncnc2c1ncn2[C@@H]1O[C@H](CO)[C@@H](O)[C@H]1O` [adenosine], the “adiponectin production during adipogenesis” value in the experiment with hBM-MSCs [3] is “no significant effect”.
